# Laboratory results taken from patent EP3502102A1, “STING INHIBITORS” (ECOLE POLYTECHNIQUE FEDERALE DE LAUSANNE (EPFL), priority 2017, dated 2019).
# Residue numbers refer to the chain shown, from its start.
# Legend:
# mmSTING [1] = target: T1, mmSTING (Mus musculus, UniProt Q3TBT3, V27A); assay: Gel-based analysis of C-176-22 labelling (click chemistry, in-gel fluorescence) in HEK293T cells; type: binding; settings: STING V27A; 0.25 µM
# T1 construct: expressed in transfected cells; host or cells: HEK293T (lentiviral transduction, induced overnight)
# T1 sequence (Q3TBT3 1-378 V27A): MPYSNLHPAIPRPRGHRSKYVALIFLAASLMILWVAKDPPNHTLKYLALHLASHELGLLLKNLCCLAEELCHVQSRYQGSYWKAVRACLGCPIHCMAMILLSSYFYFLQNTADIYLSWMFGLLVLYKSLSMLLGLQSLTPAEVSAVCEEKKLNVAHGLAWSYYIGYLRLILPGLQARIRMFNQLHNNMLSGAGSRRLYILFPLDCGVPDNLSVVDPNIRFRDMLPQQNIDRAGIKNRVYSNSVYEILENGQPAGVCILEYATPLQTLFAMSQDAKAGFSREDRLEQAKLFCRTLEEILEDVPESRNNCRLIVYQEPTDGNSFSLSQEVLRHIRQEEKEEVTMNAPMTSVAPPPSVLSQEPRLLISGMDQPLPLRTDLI
# Method: (§1) Reporter activity was measured 16 h after compound treatment. A nonlinear regression analysis was performed. […] Cytokine levels were normalized to DMSO-treated control cells. […] Nuclei were stained with DAPI. […] Depicted genes were measured by RT-qPCR. […] 16 h later Luciferase activity was measured. […] Flag-STING was immunoprecipitated and analysed by autoradiography.
# (§2) HEK293T cells expressing Flag-STING were incubated with C-176-22 (0.25 µM) in serum free media, collected in PBSs and lysed by repetitive freezing and thawing. 43 µl of lysed cells were treated with freshly prepared "click reagent" mixture containing tris(benzyltriazolylmethyl)amine (TBTA) (3 µl/sample, 3 mM in 1:4 DMSO:t-ButOH), tetramethylrhodamine (TAMRA) azide (2 µl/sample, 1.25 mM in DMSO), and freshly prepared CuSO4 (1 µl/sample) and tris-(2-carboxyethyl)phosphine hydrochloride (TCEP) (1µl/sample) and incubated at room temperature for 1 h. The reaction was quenched by addition of reducing sample buffer. In-gel fluorescence was visualized using Fusion FX (Vilber Lourmat) and analysed by Fusion capt advance acquisition software.
# (§3) We next sought to elucidate the molecular details of the interaction between C-178 and the TM part of STING. Our SAR studies highlighted the importance of the nitrofuran motif for the activity of the discovered inhibitors. Given the strong electrophilic potential of this group, we suspected that C-178 might react with a TM residue generating a covalent interaction. […] To further test the hypothesis of covalent engagement of STING, we synthesized a derivative of C-176-22, which bears an alkyne group amenable for copper-catalyzed azide alkyne cycloaddition (Click Chemistry) and performed gel-based profiling studies (Fig. 3d). Having verified that C-176-22 is still active (Fig. 7), HEK293T cells expressing STING were exposed to C-176-22, lysed, coupled to a tetramethylrhodamine (TAMRA-)azide tag and C-176-22-modified proteins were visualized using in-gel fluorescence scanning. HEK293T cells without STING served as a control for assessing non-specific protein labelling. […] Based on the observed mass shift, we postulate a nitrobenzyl rearrangement-like reaction to generate covalent bonding between C-178 and STING (see below). […] We next sought to identify the residue through which C-178 achieves binding to STING. Among the naturally occurring amino acids, cysteine residues are well-known targets of electrophilic small molecules. […] In addition, binding to and inhibition of STING are two separable functions of C-178.
# mmSTING [2] = assay: as above; type: binding, mouse; settings: for labelling of STING mutant: 0.25 µM; for labelling of other protein targets / proteome-wide selectivity: whole cell lysate, C-176-22 0.25µM
# Method: as §1, §2, §3
# mmSTING [3] = target: T2, mmSTING (Mus musculus, UniProt Q3TBT3); assay: as above; type: binding; settings: HEK293T expressing STING
# T2 construct: expressed in transfected cells; host or cells: HEK293T (lentiviral transduction, induced overnight)
# T2 sequence (Q3TBT3 1-378): T1 sequence (Q3TBT3 1-378 V27A) with A27V
# Method: as §1, §2, §3
# hsSTING = target: T3, hsSTING (Homo sapiens, UniProt Q86WV6); assay: Gel-based analysis of C-176-22 labelling in HEK293T cells expressing human STING; type: binding; settings: HEK293T cells that expressed human STING
# T3 construct: expressed in transfected cells; host or cells: HEK293T
# T3 sequence (Q86WV6 whole entry): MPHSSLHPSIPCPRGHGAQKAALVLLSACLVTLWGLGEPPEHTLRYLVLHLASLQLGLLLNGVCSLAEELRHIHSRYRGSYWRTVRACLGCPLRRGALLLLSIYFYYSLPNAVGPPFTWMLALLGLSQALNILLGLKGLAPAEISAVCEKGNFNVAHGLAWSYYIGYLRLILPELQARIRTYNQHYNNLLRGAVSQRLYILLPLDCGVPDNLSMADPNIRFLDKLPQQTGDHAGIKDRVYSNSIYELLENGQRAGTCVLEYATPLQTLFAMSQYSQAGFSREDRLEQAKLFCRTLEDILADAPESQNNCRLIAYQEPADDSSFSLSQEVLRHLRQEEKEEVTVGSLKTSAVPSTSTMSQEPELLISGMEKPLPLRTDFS
# Method: as §1
# HEK293T cells expressing Flag-STING were incubated with C-176-22 (0.25 µM) in serum free media, collected in PBSs and lysed by repetitive freezing and thawing. […] In-gel fluorescence was visualized using Fusion FX (Vilber Lourmat) and analysed by Fusion capt advance acquisition software.
# We next sought to elucidate the molecular details of the interaction between C-178 and the TM part of STING. […] Having verified that C-176-22 is still active (Fig. 7), HEK293T cells expressing STING were exposed to C-176-22, lysed, coupled to a tetramethylrhodamine (TAMRA-)azide tag and C-176-22-modified proteins were visualized using in-gel fluorescence scanning. […]
# STING = target: T4, STING (Mus musculus, UniProt Q3TBT3); assay: IFN-beta luciferase reporter in HEK293T cells transfected with STING, alone or with a cyclic dinucleotide synthase; type: cell-based; parameters: expressed in transfected cells; host or cells: HEK293T; settings: HEK293T transfected with mmSTING, 16 h
# T4 sequence (Q3TBT3 1-378): T1 sequence (Q3TBT3 1-378 V27A) with A27V
# Method: as §1
# HEK293T cells expressing murine STING with an N-terminal mCherry-tag ^28 were transfected using GeneJuice (Millipore) with a construct encoding for cyclic di-GMP synthase in conjunction with an IFN-• firefly luciferase reporter plasmid. 3 h after transfection cells were seeded in […] (Corning) coated with library compounds. For each compounds, a 40 nl volume was selected to obtain a concentration of 10 µM in the assay plates. The amount of DMSO in each well was normalised to 0.1%. After overnight treatment, cells were lysed in lysis buffer (25 mM Tris-phosphate (pH 7.8), 2 mM DTT, 2 mM 1,2-diaminocyclohexane-N,N,N',N'-tetraacetic acid, 10% glycerol, 1% Triton® X-100) for 20 min followed by the addition of firefly luciferase. Reporter activity was measured using a Tecan Infinite plate reader. The screen was performed using on ∼ 20.000 compounds from a chemically diverse compound collection available at the BSF core facility at EPFL.
# In these cells, transient transfection of vectors encoding for cyclic di-GMP synthase (cdG-Syn) and an IFN-• reporter leads to robust induction of firefly luciferase activity. We used this system to perform a high-throughput chemical screen with a library of ∼ 20.000 small molecule compounds (Fig. 6b). To increase the selectivity of candidate compounds against the STING pathway, hits from the primary screen were counter-screened for their effect on RIG-I-driven activation of the IFN-• reporter. […] To further validate the two small molecules, we treated wild-type HEK293T cells with C-178 and C-176, in which STING was either expressed alone or in conjunction with cdG-Syn. […] We next conducted a limited structure-activity relationship (SAR) analysis. Since both C-178 and C-176 share a characteristic nitrofuran moiety, we prepared analogues of C-176/8 in which this structural motif was substituted (Fig. 1c).
structure (smiles),measurement,setting,value
C#Cc1ccc(NC(=O)c2ccc([N+](=O)[O-])o2)cc1 [C-176-22],labelling of STING mutant,mmSTING [1],efficiently interacted
same,labelling band in cells without STING,mmSTING [2]; HEK293T cells that lacked STING expression,not detectable
same,labelling of STING mutant,mmSTING [2]; cysteine-to-alanine or cysteine-to-serine mutation at position 91,completely abolished
same,labelling of STING mutant,mmSTING [2]; mutated C88,did not influence
same,labelling of other protein targets / proteome-wide selectivity,mmSTING [2],negligible labelling
same,labelling of other protein targets / proteome-wide selectivity,mmSTING [2]; listed as C176L,highly specifically labels mmSTING
same,"labelling of STING, in-gel fluorescence signal (37 kDa)",mmSTING [3],"marked, dose-dependent signal"
same,labelling of human STING,hsSTING,"hardly detectable, if at all"
same,"inhibitory activity, IFN-• luciferase reporter",STING,still active
same,"inhibitory activity, IFN-• luciferase reporter",STING; listed as C176L,inhibitory active
